According to patent US10441588B2, “Methods and compositions for treating bacterial infection” (Curators of the University of Missouri, priority 2012, dated 2019):
Entries after “also recorded” stand apart in the source; their conditions may differ.

Tests used:
[1] = tested on: group A streptococcus (GAS); assay: Group A streptococcus infection in mice; type: in vivo; settings: GAS 105-6 CFU per mouse
Method: FIGS. 1A & 1B show the identification of a chemical series of compounds inhibiting group A streptococcus virulence. FIG. 1A) Microarray analysis of gene expression changes in MGAS2221 treated with CCG-102487 compared to DMSO. FIG. 1B) Effect of CCG-2979 on mice survival after infection with GAS (105-6 CFU per mouse).
A number of small molecules that can inhibit SK expression without impeding bacterial growth were evaluated. Furthermore, these compounds can inhibit gene expression of a broad spectrum of streptococcal virulence factors (FIG. 1A).

S. aureus Newman biofilm = S. aureus Newman biofilm formation in microtiter plates; type: cell-based
Method: (§1) These compounds were then tested on staphylococcus biofilm formation. […] The two compounds (CCG-203592 and CCG-205363) were tested on S. aurues strain RN6390, which is reported to be more prone to biofilm formation than Newman strain.

S. aurues strain RN6390 = assay: S. aureus RN6390 bacterial growth; type: cell-based; settings: at 20 μM
Method: as §1

[2] = tested on: S. aureus RN6390 strain biofilm; assay: Biofilm formation on medical grade silicone sheet; type: cell-based
S. aureus Newman strain = assay: S. aureus lung infection model in mice; settings: intranasal S. aureus Newman, 3-4×10^8 CFU per mouse
S. aureus = S. aureus growth inhibition, optical density, test/control; type: cell-based, Staphylococcus aureus; settings: Staphylococcus aureus, growth of bacteria test/control by optical density
S. aureus biofilm = S. aureus biofilm inhibition, optical density, test/control; type: cell-based, Staphylococcus aureus; settings: Staphylococcus aureus, growth of biofilm test/control by optical density
[3] = tested on: S. aureus RN6390 strain biofilm; assay: microbe, parasite or virus in culture; type: cell-based
[4] = tested on: S. aureus virulence factor genes; assay: S. aureus virulence factor gene expression, real time RT-PCR; type: cell-based; settings: RN6390, 50 μM; ML, LL and S growth phase
[5] = tested on: mouse fibroblast cells (CCL-1); assay: MRSA cytotoxicity on mouse fibroblast cells in vitro; type: cell-based
Method: (§2) A skin punch wound was introduced to the DIO mice and infected with 10^8 CFU MRSA. Mice were then treated locally at the wound site with ointment containing CCG-211790 (60 μg/wound) in an ointment (6% silica in cod liver oil) or ointment alone. […] Furthermore, CCG-211790 protected mouse fibroblast cells (CCL-1) from MRSA cytoxicity in vitro (FIG. 13B).

[6] = tested on: S. aureus clinical strain NRS234; assay: S. aureus pneumonia model; type: in vivo, Balb/C mice
Method: S. aureus is one of the major causative agents of pneumonia. CCG-211790 was tested in a pneumonia model. Balb/C mice were intra-nasally infected with 10^7 CFU S. aureus clinical strain NRS234 and treated with either 0.15 μmol CCG-211790 or DMSO two hours after infection. The mice were then treated with CCG-211790 or DMSO (control) twice a day after the day of infection for three days. […] Mice were also infected with higher dose of bacteria at 10^9 CFU treated intraperitoneally (ip) with either 0.15 μmol CCG-211790, vancomycin, combination of CCG-21790 and vancomycin, or DMSO two hours after infection. The mice were then treated twice a day after the day of infection for three days.

E. coli STEC O157:H7 = type: in vivo, mice
[7] = tested on: A. baumannii (AYE) biofilm; assay: A. baumannii open wound infection mouse model; type: in vivo, mice; settings: topical, 6 mg/ml in PEG, 100 μl daily
Method: A topical formulation (6 mg/ml in Polyehylene glycol; PEG) was tested for its in vivo efficacy on the open wound infection mouse model.

P. aeruginosa [8] = assay: P. aeruginosa wound infection in DIO mice; type: in vivo
MRSA [9] = assay: MRSA growth
[10] = tested on: E. coli adhesion to human epithelial cells (Caco2); assay: E. coli adhesion to Caco2 cells; type: cell-based; settings: Caco-2
Method: FIGS. 15A and 15B show CCG-211790 (NV001) inhibited E. coli virulence. FIG. 15A is a western blot of fliC expression at different concentrations of CCG-211790 (NV001).
CCG-211790 (NV001) and a number of structural analogs inhibited the expression of the flagellin gene (fliC) (FIG. 15A) and also the bacterial adhesion to human epithelial cells (Caco2) (FIG. 15B). As summarized in Table 5, the effect of compounds on E. coli flagellin expression was also tested by incubating compounds (5 and 25 μM) with E. coli for 6 hours, flagellin expression in supernatant (IVG-00601, 607) or cell pellet (IVG-00608-006014) was examined by western and quantified.

MRSA [11] = assay: MRSA response to antibiotics in presence of compound; settings: 50 μM CCG-211790
P. aeruginosa [12] = assay: Ciprofloxacin potency against P. aeruginosa
MRSA [13] = assay: MRSA skin punch wound infection in DIO mice; type: in vivo, diet induced obesity (DIO) mice; settings: 10^8 CFU MRSA; 60 μg/wound in ointment (6% silica in cod liver oil) vs ointment alone
Description: In this example, in vivo and in vitro efficacy for wound infection (against MRSA and P. aeruginosa) was investigated. Diabetic ulcer lesion is a major complication of people with diabetes and represents a form of chronic wounds. Bacteria can form biofilm in the lesions, which is recalcitrant to treatment. Therefore, diet induced obesity (DIO) mice were used as a model of obesity and insulin resistance diabetes to test the in vivo efficacy of CCG-211790 to fight wound infections.
as §2

E. coli flagellin (fliC) = assay: microbe, parasite or virus in culture; type: cell-based
Acinetobacter baumannii = assay: Vancomycin potency against Acinetobacter baumannii

Structure (SMILES): C=CCn1c(SCCCC)nc2c(c1=O)C1(CCCCC1)Cc1ccccc1-2 [CCG-2979]
- protection of mice against group A streptococcal infection (survival) [1]: capable of protecting mice

Structure (SMILES): C=CCn1c(SCC)nc2c(c1=O)C(C)(C)Cc1cc(OC)ccc1-2 [CCG-203592]
- S. aureus Newman biofilm formation (S. aureus Newman biofilm): consistent inhibition
- bacteria growth (S. aurues strain RN6390): without inhibiting bacteria growth
- biofilm formation on the surface of silicone sheet [2]: decreased biofilm formation
- protection of mice in S. aureus lung infection model (S. aureus Newman strain): in vivo efficacy in protecting mice
- activity at 100 µM (S. aureus): 110%
- activity at 10 µM (S. aureus biofilm; 10 μM): 40.2%
- activity at 100 µM (S. aureus biofilm; 100 μM): 23%
- IC50, inhibition of S. aureus biofilm formation [3]: low μM range
- IC50 ([3]; Staphylococcus aureus, read-out: IC50, inhibition of RN6390 biofilm formation): 2.42 ± 0.14 µM
- S. aureus virulence factor gene expression [4]: down regulated; also recorded: inhibited gene expression

Structure (SMILES): COc1ccc2c(c1)-c1nc(SCC(F)(F)F)n(C)c(=O)c1C(C)(C)C2 [CCG-211790, 9-methoxy-3,5,5-trimethyl-2-((2,2,2-trifluoroethyl)thio)-5,6-dihydrobenzo[h]quinazolin-4(3H)-one]
- protection of CCL-1 cells from MRSA cytoxicity [5]: protected
- bacterial counts in both lungs and spleens ([6]; 10^7 CFU intranasal, 0.15 μmol, twice a day for three days, vs DMSO): Significant reduction
- protection of hosts (survival), monotherapy ([6]; 10^9 CFU, 0.15 μmol ip): Significant protection
- survival rate, combination with vancomycin ([6]; 10^9 CFU, combination of vancomycin and CCG-211790): improved the survival rate
- survival (E. coli STEC O157:H7; […], 10 mg/kg ip twice a day): 55.6%
- infection symptoms and survival (E. coli STEC O157:H7; mouse, in vivo): improved infection symptoms and survival
- A. baumannii infected wound lesion size [7]: reduced
- survival (P. aeruginosa [8]; female DIO mice, 10^8 CFU, 12 mg/kg CCG-211790 oral with 10 mg/kg vancomycin ip): 100%
- skin lesion size (P. aeruginosa [8]; male and female DIO mice, with vancomycin vs only vancomycin): reduced
- effect on bacteria growth (MRSA [9]): little to no effect
- bacterial adhesion to human epithelial cells (Caco2) [10]: inhibited
- antibiotic potency against MRSA (amoxicillin, vancomycin, clindamycin, tetracycline, erythromycin) (MRSA [11]): enhanced the antibiotic potency
- ciprofloxacin potency against P. aeruginosa (P. aeruginosa [12]): enhanced
- skin lesion size (MRSA [13]): reduce the skin lesion size
- activity at 5 µM (S. aureus biofilm; 5 μM, read-out: S. aureus Biofilm Inhibition 5 μM vs. (−) Control): 38.1%
- activity at 50 µM (S. aureus biofilm; 50 μM, read-out: S. aureus Biofilm Inhibition 50 μM vs. (−) Control): 32.6%
- activity at 5 µM (E. coli flagellin (fliC); Escherichia coli, 6 h, read-out: E. coli flagellin production, Relative Level vs. Control, 5 μM): 56.9%
- activity at 25 µM (E. coli flagellin (fliC); Escherichia coli, 6 h, read-out: E. coli flagellin production, Relative Level vs. Control, 25 μM): 15.4%
- expression of the flagellin gene (fliC) (E. coli flagellin (fliC); western blot, different concentrations): inhibited
- potency of vancomycin against Acinetobacter baumannii (Acinetobacter baumannii): enhanced the potency
